Assay: Evaluation of stability in liver microsome
Conditions: mouse liver microsome 0.25 mg/mL, 1 μM test compound, 37° C. for 30 minutes

Compound	Remaining (%)
COCc1ccc(NC(=O)c2c(OC[C@@H]3CCCO3)n(C3(C)CC3)c3ncnc(N)c23)cc1 [Example 97, (S)-4-amino-N-(4-(methoxymethyl)phenyl)-7-(1-methylcyclopropyl)-6-((tetrahydrofuran-2-yl)methoxy)-7H-pyrrolo[2,3-d] pyrimidine-5-carboxamide]	70%
COCc1ccc(NC(=O)c2c(OCC(C)C)n(C3(C)CC3)c3ncnc(N)c23)cc1 [Example 99, 4-amino-6-isobutoxy-N-(4-(methoxymethyl)phenyl)-7-(1-methylcyclopropyl)-7H-pyrrolo[2,3-d]pyrimidine-5-carboxamide]	51%
COCc1ccc(NC(=O)c2c(OCC(C)OC)n(C3(C)CC3)c3ncnc(N)c23)cc1 (stereo not drawn) [Example 100, 4-amino-N-(4(methoxymethyl)phenyl)-6-(2-methoxypropoxy)-7-(1-methylcyclopropyl)-7H-pyrrolo[2,3-d]pyrimidine-5-carboxamide]	76%
COCc1ccc(NC(=O)c2c(OCC3CCOC3)n(C3(C)CC3)c3ncnc(N)c23)cc1 (stereo not drawn) [Example 101, 4-amino-N-(4-(methoxymethyl)phenyl)-7-(1methylcyclopropyl)-6-((tetrahydrofuran-3-yl)methoxy)-7H-pyrrolo[2,3-d]pyrimidine-5-carboxamide]	68%
COCc1ccc(NC(=O)c2c(OCC3CCCCO3)n(C3(C)CC3)c3ncnc(N)c23)cc1 (stereo not drawn) [Example 102, 4-amino-N-(4-(methoxymethyl)phenyl)-7-(1-methylcyclopropyl)-6-((tetrahydro-2H-pyran-2-yl)methoxy)-7H-pyrrolo[2,3-d]pyrimidine-5-carboxamide]	60%
COCc1ccc(NC(=O)c2c(C#CCC3(O)CCC3)n(C3(C)CC3)c3ncnc(N)c23)cc1 [Example 103, 4-amino-6-(3-(1-hydroxycyclobutyl)prop-1-yn-1-yl)-N-(4-(methoxymethyl)phenyl)-7-(1-methylcyclopropyl)-7H-pyrrolo[2,3-d]pyrimidine-5-carboxamide]	60%
COCc1ccc(NC(=O)c2c(C#CC(O)C3CC3)n(C3(C)CC3)c3ncnc(N)c23)cc1 (stereo not drawn) [Example 104, 4-amino-6-(3-cyclopropyl-3-hydroxyprop-1-yn-1-yl)-N-(4-(methoxymethyl)phenyl)-7-(1-methylcyclopropyl)-7H-pyrrolo[2,3-d]pyrimidine-5-carboxamide]	52%
COCc1ccc(NC(=O)c2c(C#CCN3CCCCC3)n(C3(C)CC3)c3ncnc(N)c23)cc1 [Example 105, 4-amino-N-[4-(methoxymethyl)phenyl]-7-(1-methylcyclopropyl)-6-(3-(piperidin-1-yl)prop-1-yn-1-yl)-7H-pyrrolo[2,3-d]pyrimidine-5-carboxamide]	52%
COCc1ccc(NC(=O)c2c(/C=C/CO)n(C3(C)CC3)c3ncnc(N)c23)cc1 [Example 109, (E)-4-amino-6-(3-hydroxyprop-1-en-1-yl)-N-(4-(methoxymethyl)phenyl)-7-(1-methylcyclopropyl)-7H-pyrrolo[2,3-d]pyrimidine-5-carboxamide]	68%
COCc1ccc(NC(=O)c2c(C#Cc3ccccc3OC)n(C3(C)CC3)c3ncnc(N)c23)cc1 [Example 113, 4-amino-N-(4-(methoxymethyl)phenyl)-6-((2-methoxyphenyl)ethynyl)-7-(1-methylcyclopropyl)-7H-pyrrolo[2,3-d]pyrimidine-5-carboxamide]	79%
CCn1nccc1C#Cc1c(C(=O)Nc2ccc(COC)cc2)c2c(N)ncnc2n1C1(C)CC1 [Example 114, 4-amino-6-((1-ethyl-1H-pyrazol-5-yl)ethynyl)-N-(4-(methoxymethyl)phenyl)-7-(1-methylcyclopropyl)-7H-pyrrolo[2,3-d]pyrimidine-5-carboxamide]	55%
CCOc1c(C(=O)Nc2ccc(-c3ccco3)cc2)c2c(N)ncnc2n1C1(C)CC1 [Example 116, 4-amino-6-ethoxy-N-(4-(furan-2-yl)phenyl)-7-(1-methylcyclopropyl)-7H-pyrrolo[2,3-d]pyrimidine-5-carboxamide]	55%
CCn1cc(C#Cc2c(C(=O)Nc3ccc(COC)cc3)c3c(N)ncnc3n2C2(C)CC2)cn1 [Example 118, 4-amino-6-((1-ethyl-1H-pyrazol-4-yl)ethynyl)-N-(4-(methoxymethyl)phenyl)-7-(1-methylcyclopropyl)-7H-pyrrolo[2,3-d]pyrimidine-5-carboxamide]	73%
COCc1ccc(NC(=O)c2c(C#Cc3cccs3)n(C3(C)CC3)c3ncnc(N)c23)cc1 [Example 119, 4-amino-N-(4-(methoxymethyl)phenyl)-7-(1-methylcyclopropyl)-6-(thiophen-2-ylethynyl)-7H-pyrrolo[2,3-d]pyrimidine-5-carboxamide]	70%
COCc1ccc(NC(=O)c2c(C#Cc3ccc(Cl)nc3)n(C3(C)CC3)c3ncnc(N)c23)cc1 [Example 120, 4-amino-6-((6-chloropyridin-3-yl)ethynyl)-N-(4-(methoxymethyl)phenyl)-7-(1-methylcyclopropyl)-7H-pyrrolo[2,3-d]pyrimidine-5-carboxamide]	72%
COCc1ccc(NC(=O)c2c(C#Cc3c[nH]c4ccccc34)n(C3(C)CC3)c3ncnc(N)c23)cc1 [Example 121, 6-((1H-indol-3-yl)ethynyl)-4-amino-N-(4-(methoxymethyl)phenyl)-7-(1-methylcyclopropyl)-7H-pyrrolo[2,3-d]pyrimidine-5-carboxamide]	74%
COCc1ccc(NC(=O)c2c(C#Cc3cccc(NCc4ccncc4)c3)n(C3(C)CC3)c3ncnc(N)c23)cc1 [Example 122, 4-amino-N-(4-(methoxymethyl)phenyl)-7-(1-methylcyclopropyl)-6-((3-((pyridin-4-ylmethyl)amino)phenyl)ethynyl)-7H-pyrrolo[2,3-d]pyrimidine-5-carboxamide]	62%
COCc1ccc(NC(=O)c2c(C#CCC3(O)COC3)n(C3(C)CC3)c3ncnc(N)c23)cc1 [Example 125, 4-amino-6-(3-(3-hydroxyoxetan-3-yl)prop-1-yn-1-yl)-N-(4-(methoxymethyl)phenyl)-7-(1-methylcyclopropyl)-7H-pyrrolo[2,3-d]pyrimidine-5-carboxamide]	74%
COCc1ccc(NC(=O)c2c(C#Cc3csc(C)n3)n(C3(C)CC3)c3ncnc(N)c23)cc1 [Example 126, 4-amino-N-(4-(methoxymethyl)phenyl)-7-(1-methylcyclopropyl)-6-((2-methylthiazol-4-yl)ethynyl)-7H-pyrrolo[2,3-d]pyrimidine-5-carboxamide]	69%
CCOc1c(C(=O)Nc2ccc(COC)cc2)c2c(N)ncnc2n1C1(C)CC1 [Example 127, 4-amino-6-ethoxy-N-(4-(methoxymethyl)phenyl)-7-(1-methylcyclopropyl)-7H-pyrrolo[2,3-d]pyrimidine-5-carboxamide]	70%
COCc1ccc(NC(=O)c2c(C#Cc3cnc4[nH]ccc4c3)n(C3(C)CC3)c3ncnc(N)c23)cc1 [Example 128, 6-((1H-pyrrolo[2,3-b]pyridine-5-yl)ethynyl)-4-amino-N-(4-(methoxymethyl)phenyl)-7-(1-methylcyclopropyl)-7H-pyrrolo[2,3-d]pyrimidine-5-carboxamide]	82%
COCc1ccc(NC(=O)c2c(C#Cc3ccn[nH]3)n(C3(C)CC3)c3ncnc(N)c23)cc1 [Example 129, 6-((1H-pyrazol-5-yl)ethynyl)-4-amino-N-(4-(methoxymethyl)phenyl)-7-(1-methylcyclopropyl)-7H-pyrrolo[2,3-d]pyrimidine-5-carboxamide]	54%
COCc1ccc(NC(=O)c2c(C#Cc3cccc(F)c3)n(C3(C)CC3)c3ncnc(N)c23)cc1 [Example 130, 4-amino-6-((3-fluorophenyl)ethynyl)-N-(4-(methoxymethyl)phenyl)-7-(1-methylcyclopropyl)-7H-pyrrolo[2,3-d]pyrimidine-5-carboxamide]	84%
COCc1ccc(NC(=O)c2c(C#CC3(O)CCCC3)n(C3(C)CC3)c3ncnc(N)c23)cc1 [Example 131, 4-amino-6-((1-hydroxycyclopentyl)ethynyl)-N-(4-(methoxymethyl)phenyl)-7-(1-methylcyclopropyl)-7H-pyrrolo[2,3-d]pyrimidine-5-carboxamide]	55%
COCc1ccc(NC(=O)c2c(C#CCN3CCN(C)CC3)n(C3(C)CC3)c3ncnc(N)c23)cc1 [Example 132, 4-amino-N-(4-(methoxymethyl)phenyl)-7-(1methylcyclopropyl)-6-(3-(4-methylpiperazin-1-yl)prop-1-yn-1-yl)-7H-pyrrolo[2,3-d]pyrimidine-5-carboxamide]	77%
COCc1ccc(NC(=O)c2c(SC)n(C3(C)CC3)c3ncnc(N)c23)cc1 [Example 133, 4-amino-N-(4-methoxymethyl)phenyl-7-(1-methylcyclopropyl)-6-(methylthio)-7H-pyrrolo[2,3-d]pyrimidine-5-carboxamide]	70%
COCc1ccc(NC(=O)c2c(C#CC(C)(C)N)n(C3(C)CC3)c3ncnc(N)c23)cc1 [Example 134, 4-amino-6-(3-amino-3-methylbut-1-yn-1-yl)-N-(4-(methoxymethyl)phenyl)-7-(1-methylcyclopropyl)-7H-pyrrolo[2,3-d]pyrimidine-5-carboxamide]	79%
COCc1ccc(NC(=O)c2c(OCC3CCCO3)n(C3(C)CC3)c3ncnc(N)c23)cc1 (stereo not drawn) [Example 135, 4-amino-N-(4-(methoxymethyl)phenyl)-7-(1-methylcyclopropyl)-6-((tetrahydrofuran-2-yl)methoxy)-7H-pyrrolo[2,3-d]pyrimidine-5-carboxamide]	67%
COCc1ccc(NC(=O)c2c(OCCN3CCCC3=O)n(C3(C)CC3)c3ncnc(N)c23)cc1 [Example 136, 4-amino-N-(4-(methoxymethyl)phenyl)-7-(1-methylcyclopropyl)-6-(2-(2-oxopyrrolidin-1-yl)ethoxy)-7H-pyrrolo[2,3-d]pyrimidine-5-carboxamide]	78%
COCc1ccc(NC(=O)c2c(OCC(C)(C)OC)n(C3(C)CC3)c3ncnc(N)c23)cc1 [Example 137, 4-amino-6-(2-methoxy-2-methylpropoxy)-N-(4-(methoxymethyl)phenyl)-7-(1-methylcyclopropyl)-7H-pyrrolo[2,3-d]pyrimidine-5-carboxamide]	53%
